From patent US6569836B2, “6-O-alkyl-2-nor-2-substituted ketolide derivatives” (Abbott Laboratories, priority 1999, dated 2003)

How the values were obtained:
Test in all cases: In vitro antibacterial activity, agar dilution MIC
Escherichiacoli JUHL = format: cell-based, Escherichia coli; conditions: code QQ, BHI agar, 35-37° C., 20-24 hours, unit assumed
Description: (§1) Each plate was inoculated with 1:100 (or 1:10 for slow-growing strains, such as Micrococcus and Streptococcus) dilutions of up to 32 different microorganisms, using a Steers replicator block. The inoculated plates were incubated at 35-37° C. for 20-24 hours. In addition, a control plate using BHI agar with no test compound was prepared and incubated at the beginning and end of each test. A plate containing erythromycin A was also prepared to provide test-to-test comparability. […] After incubation, each plate was visually inspected. The minimum inhibitory concentration (MIC) was defined as the lowest concentration of drug yielding no growth, a slight haze, or sparsely isolated colonies on the inoculum spot as compared to the growth control.

Escherichiacoli SS = format: cell-based, Escherichia coli; conditions: code RR, BHI agar, 35-37° C., 20-24 hours, unit assumed
Description: as §1

[1] = tested on: Haemophilislnfluenzae DILL AMP R; format: cell-based, Haemophilus influenzae; conditions: code WW, BHI agar, 35-37° C., 20-24 hours, unit assumed
Description: Representative compounds of the present invention were assayed in vitro for antibacterial activity as follows: twelve petri dishes containing successive aqueous dilutions of the test compound mixed with 10 mL of sterilized Brain Heart Infusion (BHI) agar (Difco 0418-01-5) were prepared. Each plate was inoculated with 1:100 (or 1:10 for slow-growing strains, such as Micrococcus and Streptococcus) dilutions of up to 32 different microorganisms, using a Steers replicator block. The inoculated plates were incubated at 35-37° C. for 20-24 hours. In addition, a control plate using BHI agar with no test compound was prepared and incubated at the beginning and end of each test.
A plate containing erythromycin A was also prepared to provide test-to-test comparability.
After incubation, each plate was visually inspected. The minimum inhibitory concentration (MIC) was defined as the lowest concentration of drug yielding no growth, a slight haze, or sparsely isolated colonies on the inoculum spot as compared to the growth control.

[2] = tested on: Streptococcus Pneumonia 5979; format: cell-based; conditions: code ZZ, BHI agar, 35-37° C., 20-24 hours, unit assumed
Description: as §1, with “test.” for “test. A plate containing erythromycin A was also prepared to provide test-to-test comparability.”

[3] = tested on: Micrococcusluteus ATCC 4698; format: cell-based, Micrococcus luteus; conditions: code PP, BHI agar, 35-37° C., 20-24 hours, unit assumed
Description: as §1

[4] = tested on: Streptococcus Pneumonia ATCC 6303; format: cell-based; conditions: code XX, BHI agar, 35-37° C., 20-24 hours, unit assumed
Description: as §1

[5] = tested on: Mycobacterium smegmatis ATCC 114; format: cell-based; conditions: code UU, BHI agar, 35-37° C., 20-24 hours, unit assumed
Description: as §1

[6] = tested on: Streptococcus pyogenes EES61; format: cell-based; conditions: code LL, BHI agar, 35-37° C., 20-24 hours, unit assumed
Description: as §1

[7] = tested on: Streptococcus bovis A-5169; format: cell-based; conditions: code JJ, BHI agar, 35-37° C., 20-24 hours, unit assumed
Description: as §1

[8] = tested on: Staphylococcus aureus 1775; format: cell-based; conditions: code GG, BHI agar, 35-37° C., 20-24 hours, unit assumed
Description: as §1

[9] = tested on: Staphylococcus aureus A-5177; format: cell-based; conditions: code BB, BHI agar, 35-37° C., 20-24 hours, unit assumed
Description: as §1

[10] = tested on: Streptococcus agalactiae CMX 508; format: cell-based; conditions: code KK, BHI agar, 35-37° C., 20-24 hours, unit assumed
Description: as §1

Candida albicans CCH 442 = format: cell-based; conditions: code TT, BHI agar, 35-37° C., 20-24 hours, unit assumed
Description: as §1

[11] = tested on: Staphylococcus aureus ATCC 6538P; format: cell-based; conditions: code AA, BHI agar, 35-37° C., 20-24 hours, unit assumed
Description: as §1

[12] = tested on: Streptococcus Pneumonia 5649; format: cell-based; conditions: code ZA, BHI agar, 35-37° C., 20-24 hours, unit assumed
Description: as §1

[13] = tested on: Streptococcus Pneumonia GYR 1171; format: cell-based; conditions: code YY, BHI agar, 35-37° C., 20-24 hours
Description: as §1

[14] = tested on: Streptococcus pyogenes PIU 2548; format: cell-based; conditions: code NN, BHI agar, 35-37° C., 20-24 hours, unit assumed
Description: as §1

[15] = tested on: Nocardia Asteroides ATCC 99700; format: cell-based; conditions: code VV, BHI agar, 35-37° C., 20-24 hours, unit assumed
Description: as §1

[16] = tested on: Staphylococcus aureus A-5278; format: cell-based; conditions: code CC, BHI agar, 35-37° C., 20-24 hours, unit assumed
Description: as §1

[17] = tested on: Streptococcus pyogenes 930; format: cell-based; conditions: code MM, BHI agar, 35-37° C., 20-24 hours, unit assumed
Description: as §1

[18] = tested on: Staphylococcus epidermidis 3519; format: cell-based; conditions: code HH, BHI agar, 35-37° C., 20-24 hours, unit assumed
Description: as §1

[19] = tested on: Staphylococcus aureus NCTC 10649M; format: cell-based; conditions: code EE, BHI agar, 35-37° C., 20-24 hours, unit assumed
Description: as §1

Row | Compound | Antibacterial Activity (MIC's) (Escherichiacoli JUHL) [µg/mL] | Antibacterial Activity (MIC's) (Escherichiacoli SS) [µg/mL] | Antibacterial Activity (MIC's) [1] [µg/mL] | Antibacterial Activity (MIC's) [2] [µg/mL] | Antibacterial Activity (MIC's) [3] [µg/mL] | Antibacterial Activity (MIC's) [4] [µg/mL] | Antibacterial Activity (MIC's) [5] [µg/mL] | Antibacterial Activity (MIC's) [6] [µg/mL] | Antibacterial Activity (MIC's) [7] [µg/mL] | Antibacterial Activity (MIC's) [8] [µg/mL] | Antibacterial Activity (MIC's) [9] [µg/mL] | Antibacterial Activity (MIC's) [10] [µg/mL] | Antibacterial Activity (MIC's) (Candida albicans CCH 442) [µg/mL] | Antibacterial Activity (MIC's) [11] [µg/mL] | Antibacterial Activity (MIC's) [12] [µg/mL] | Antibacterial Activity (MIC's) ([13]; unit assumed) [µg/mL] | Antibacterial Activity (MIC's) [14] [µg/mL] | Antibacterial Activity (MIC's) [15] [µg/mL] | Antibacterial Activity (MIC's) [16] [µg/mL] | Antibacterial Activity (MIC's) [17] [µg/mL] | also measured
1 | CCC1OC(=O)C(CS(=O)(=O)O)C(=O)C(C)C(OC2OC(C)CC(N(C)C)C2O)C(C)(OCC=Cc2cnc3ccccc3c2)CC(C)C(=O)C(C)C2NC(=O)OC12C (stereo not shown) [Example 6, Compound of Formula (XI), R^p is Hydrogen, Y is Hydrogen, R^2 is 3-quinolyl, R^3 is —CH2SO3H and R^4 is Hydrogen] | > 100 | 3.1 | 16 | 64 | 0.39 | 0.25 | 12.5 | 0.2 | 0.05 | > 100 | 0.78 | 0.2 | > 100 | 0.39 | 2 | 0.125 | 0.78 | 0.2 | > 100 | 25 | Antibacterial Activity (MIC's) [18]: 0.78 µg/mL; Antibacterial Activity (MIC's) [19]: 0.78 µg/mL
2 | Compound of Formula (I), R^p is Hydrogen, Y is Hydrogen, R^1 is —CH2CH(OH)CH(OH)—(3-quinolyl), R^3 is —CH2OH and R^4 is OH [Example 3] | 50 | 0.2 | 2 | 64 | 0.05 | 0.008 | 3.1 | 0.01 | 0.01 | > 100 | 0.05 | 0.01 | > 100 | 0.05 | 0.25 |  | 0.1 | 0.05 | > 100 | 12.5 | Antibacterial Activity (MIC's) [13]: ≦0.004; Antibacterial Activity (MIC's) [18]: 0.05 µg/mL; Antibacterial Activity (MIC's) [19]: 0.1 µg/mL
3 | CCC1OC(=O)C(CC(C(=O)OC)C(=O)OC)C(=O)C(C)C(OC2OC(C)CC(N(C)C)C2O)C(C)(OCC=Cc2cnc3ccccc3c2)CC(C)C(=O)C(C)C2NC(=O)OC12C (stereo not shown) [Example 7, Compound of Formula (XI), R^p is Hydrogen Y is Hydrogen R^2 is 3-quinolyl, R^3 is —CH CH(CO2Me)2 and R^4 is Hydrogen] |  |  | 8 | 64 |  | 0.03 |  |  |  |  |  |  |  |  | 0.25 | 0.03 |  |  |  |  | 
